Values of other authors, collected in patent US6447820B1, “Pharmaceutical composition for the prevention and treatment of scar tissue” (priority 2001, dated 2002).

How the values were obtained:
[1] = mice
[2] = mice; remark: listed apart in the source
[3] = X-ray irradiated recipient mice
[4] = mice; remark: listed apart in the source
[5] = guinea pigs
[6] = mice; remark: listed apart in the source

CC1(C)O[C@H]2CC(=O)OC[C@]23[C@H]2CC[C@@]4(C)[C@H](c5ccoc5)OC(=O)[C@H]5O[C@]54[C@]2(C)C(=O)C[C@@H]13 [limonin]
sleeping time induced by alpha-chloralose-urethane [1]: shorten

COc1ccc2c(c1O)-c1c(O)c(OC)cc3c1[C@H](C2)[N+](C)(C)CC3 [magnoflorine]
local GvH reactions [2]: suppress

CC1(C)OC(=O)C=C[C@]2(C)[C@H]3CC[C@@]4(C)[C@H](c5ccoc5)OC(=O)[C@H]5O[C@]54[C@]3(C)C(=O)C[C@@H]12 [obacunone]
sleeping time induced by alpha-chloralose-urethane [1]: shorten

COc1cc2c(cc1O)C[C@H]1c3cc(O)c(OC)cc3CC[N@@+]1(C)C2 [phellodendrine]
local GvH reactions [2]: suppress | local semisyngeneic GvH reactions [2]: suppressed | systemic allogeneic GvH reactions [3]: suppressed | effector phase of SRBC-induced delayed type hypersensitivity [4]: did not suppress | induction phase of SRBC-induced delayed type hypersensitivity [4]: suppressed | effector phase of tuberculin-induced delayed type hypersensitivity [5]: did not suppress | induction phase of tuberculin-induced delayed type hypersensitivity [5]: suppressed | antibody production to SRBC [6]: did not affect
